The test system of the experiment is CD2F1 mice, L1210 leukemia ip, survival T/C. Description: NCI In Vivo Anticancer Drug Screen. Data for tumor model L1210 Leukemia (intraperitoneal) in CD2F1 (CDF1) mice. The note with it: higher = longer survival. As to the method:
The antitumor activity of compounds was measured in mice bearing transplantable tumors. Survival or tumor size were measured and the results are expressed as the measurement made in the treated group (T) divided by the measurement made in the vehicle treated control group (C). The tumor model used in this assay is L1210 Leukemia (intraperitoneal) in CD2F1 (CDF1) mice

The mark [1] stands for this setting: endpoint: mean survival time, dose: 400.0 mg/kg/injection, schedule: Q04DX003 (ip), vehicle: saline with Tween-80.
[2] abbreviates: endpoint: mean survival time, dose: 100.0 mg/kg/injection, schedule: Q01DX009 (ip), vehicle: saline with Tween-80.
The mark [3] stands for this setting: endpoint: mean survival time, dose: 100.0 mg/kg/injection, schedule: Q04DX003 (ip), vehicle: saline with Tween-80.
The mark [4] stands for this setting: endpoint: mean survival time, dose: 200.0 mg/kg/injection, schedule: Q01DX009 (ip), vehicle: saline with Tween-80.
Setting [5] is: endpoint: mean survival time, dose: 200.0 mg/kg/injection, schedule: Q04DX003 (ip), vehicle: saline with Tween-80.

SMILES strings stand for the structures. Values joined by “and” are separate entries in the source; they are usually repeats but may differ in a detail not shown here. Identical values can stand only once. Toxic doses and inconclusive results are not listed.

Turning to `COc1nc(NC2OC(CO)C(O)C(O)C2O)c(C(C)=O)c(=O)[nH]1` (stereo unspecified), the T/C (endpoint: median survival time, dose: 12.5 mg/kg/injection, schedule: Q01DX005 (ip), vehicle: saline) is 97 % of control; the T/C (endpoint: median survival time, dose: 25.0 mg/kg/injection, schedule: Q01DX005 (ip), vehicle: saline) was 98 % of control; the T/C (endpoint: median survival time, dose: 50.0 mg/kg/injection, schedule: Q01DX005 (ip), vehicle: saline) is 98 % of control; the T/C (endpoint: median survival time, dose: 100.0 mg/kg/injection, schedule: Q01DX005 (ip), vehicle: saline) was 97 % of control; the T/C (endpoint: median survival time, dose: 200.0 mg/kg/injection, schedule: Q01DX005 (ip), vehicle: saline) was 98 % of control.

Consider `CC(CCC(C)(C)O)C1CCC2C3C(O)CC4CCCCC4(C)C3CC(O)C12C` (stereo unspecified), for which the T/C under setting [1] was 88 % of control.

In the case of `O=C(O)c1ccc(C(=O)O)o1.[NH-]C1CCCCC1[NH-].[Pt+2]`, the T/C is 122 % of control and 102 % of control (endpoint: mean survival time, dose: 1.25 mg/kg/injection, schedule: Q04DX003 (ip), vehicle: dextrose); 111 % of control and 112 % of control (endpoint: mean survival time, dose: 2.5 mg/kg/injection, schedule: Q04DX003 (ip), vehicle: dextrose); 117 % of control (endpoint: mean survival time, dose: 5.0 mg/kg/injection, schedule: Q04DX003 (ip), vehicle: dextrose); 183 % of control (endpoint: mean survival time, dose: 20.0 mg/kg/injection, schedule: Q04DX003 (ip), vehicle: dextrose); 94 % of control (endpoint: mean survival time, dose: 40.0 mg/kg/injection, schedule: Q04DX003 (ip), vehicle: dextrose).

`O=c1nc2c(ncn2C2OC(CO)C(O)C2O)c(NCCc2ccccc2)[nH]1` (stereo unspecified): the T/C was 93 % of control (endpoint: mean survival time, dose: 12.5 mg/kg/injection, schedule: Q01DX005 (ip), vehicle: water); 98 % of control (endpoint: mean survival time, dose: 25.0 mg/kg/injection, schedule: Q01DX005 (ip), vehicle: water); 96 % of control (endpoint: mean survival time, dose: 50.0 mg/kg/injection, schedule: Q01DX005 (ip), vehicle: water); 112 % of control (endpoint: mean survival time, dose: 100.0 mg/kg/injection, schedule: Q01DX005 (ip), vehicle: water).

With `CC1(OO)OOC(=O)C1(C)C` (stereo unspecified), the T/C was 90 % of control (endpoint: mean survival time, dose: 6.25 mg/kg/injection, schedule: Q04DX002 (ip), vehicle: saline with Tween-80); 93 % of control (endpoint: mean survival time, dose: 12.5 mg/kg/injection, schedule: Q04DX002 (ip), vehicle: saline with Tween-80); 96 % of control (endpoint: mean survival time, dose: 25.0 mg/kg/injection, schedule: Q04DX002 (ip), vehicle: saline with Tween-80).

Turning to `O=C(O)/C=C/C(=O)Nc1ccccc1Cl`, the T/C runs as follows: under setting [2], 96 % of control; under setting [3], 94 % of control; under setting [4], 96 % of control; under setting [5], 105 % of control; under setting [1], 101 % of control.

Turning to `CC(=O)C1CN(C(C)(C)C)C1`, the T/C (endpoint: mean survival time, dose: 6.25 mg/kg/injection, schedule: Q01DX009 (ip), vehicle: saline) was 93 % of control; the T/C (endpoint: mean survival time, dose: 6.25 mg/kg/injection, schedule: Q04DX003 (ip), vehicle: saline) was 98 % of control; the T/C (endpoint: mean survival time, dose: 12.5 mg/kg/injection, schedule: Q01DX009 (ip), vehicle: saline) was 98 % of control; the T/C (endpoint: mean survival time, dose: 12.5 mg/kg/injection, schedule: Q04DX003 (ip), vehicle: saline) was 96 % of control; the T/C (endpoint: mean survival time, dose: 25.0 mg/kg/injection, schedule: Q01DX009 (ip), vehicle: saline) is 98 % of control; the T/C (endpoint: mean survival time, dose: 25.0 mg/kg/injection, schedule: Q04DX003 (ip), vehicle: saline) is 95 % of control.

Turning to `CCC1(O)C(=O)OCc2c1cc1n(c2=O)Cc2cc3ccc(C(F)(F)F)cc3nc2-1` (stereo unspecified), the T/C (endpoint: median survival time, dose: 10.0 mg/kg/injection, schedule: Q04DX002 (ip), vehicle: saline with Tween-80) was 103 % of control; the T/C (endpoint: median survival time, dose: 20.0 mg/kg/injection, schedule: Q04DX002 (ip), vehicle: saline with Tween-80) was 100 % of control; the T/C (endpoint: median survival time, dose: 40.0 mg/kg/injection, schedule: Q04DX002 (ip), vehicle: saline with Tween-80) was 104 % of control; the T/C (endpoint: median survival time, dose: 80.0 mg/kg/injection, schedule: Q04DX002 (ip), vehicle: saline with Tween-80) was 104 % of control.

For `CCOC(=O)Nc1cccc(Cl)c1Cl`, the T/C under setting [2] is 97 % of control; the T/C under setting [4] was 102 % of control; the T/C (endpoint: mean survival time, dose: 400.0 mg/kg/injection, schedule: Q01DX009 (ip), vehicle: saline with Tween-80) is 105 % of control.

Regarding `CC(CCC(=O)O)(c1cc(Br)c(O)c(Br)c1)c1cc(Br)c(O)c(Br)c1`, the T/C runs as follows: (endpoint: mean survival time, dose: 100.0 mg/kg/injection, schedule: Q01DX009 (ip), vehicle: other) 96 % of control; (endpoint: mean survival time, dose: 200.0 mg/kg/injection, schedule: Q01DX009 (ip), vehicle: other) 102 % of control; (endpoint: mean survival time, dose: 400.0 mg/kg/injection, schedule: Q01DX009 (ip), vehicle: other) 101 % of control.

Consider `Nc1nc(SSc2nc(N)nc3c2ncn3C2CC(O)C(CO)O2)c2ncn(C3CC(O)C(CO)O3)c2n1` (stereo unspecified), for which the T/C by setting is: (endpoint: mean survival time, dose: 2.3 mg/kg/injection, schedule: Q01DX009 (ip), vehicle: saline) 152 % of control; (endpoint: mean survival time, dose: 4.7 mg/kg/injection, schedule: Q01DX009 (ip), vehicle: saline) 162 % of control; (endpoint: mean survival time, dose: 18.8 mg/kg/injection, schedule: Q01DX009 (ip), vehicle: saline) 119 % of control.

`[Co].[O-][Cl+3]([O-])([O-])O.c1ccc([PH+](CC[PH+](c2ccccc2)c2ccccc2)c2ccccc2)cc1.c1ccc([PH+](CC[PH+](c2ccccc2)c2ccccc2)c2ccccc2)cc1`: the T/C (endpoint: mean survival time, dose: 6.25 mg/kg/injection, schedule: Q04DX003 (ip), vehicle: saline with Tween-80) was 94 % of control; the T/C (endpoint: mean survival time, dose: 12.5 mg/kg/injection, schedule: Q04DX003 (ip), vehicle: saline with Tween-80) was 98 % of control; the T/C (endpoint: mean survival time, dose: 25.0 mg/kg/injection, schedule: Q04DX003 (ip), vehicle: saline with Tween-80) was 110 % of control; the T/C under setting [5] was 91 % of control.

With `Nc1nc(SCC(=O)c2ccccc2)c2[nH]cnc2n1`, the T/C runs as follows: (endpoint: mean survival time, dose: 100.0 mg/kg/injection, schedule: Q04DX003 (ip), vehicle: saline sonified) 113 % of control; (endpoint: mean survival time, dose: 176.0 mg/kg/injection, schedule: Q04DX003 (ip), vehicle: saline with Tween-80) 113 % of control; (endpoint: mean survival time, dose: 200.0 mg/kg/injection, schedule: Q04DX003 (ip), vehicle: saline sonified) 107 % of control.

For the molecule `CC(=O)Oc1cc(Cl)c(Cl)cc1Cl`, the T/C runs as follows: (endpoint: mean survival time, dose: 100.0 mg/kg/injection, schedule: Q01DX001 (ip), vehicle: saline with Tween-80) 108 % of control; (endpoint: mean survival time, dose: 200.0 mg/kg/injection, schedule: Q01DX001 (ip), vehicle: saline with Tween-80) 97 % of control; (endpoint: mean survival time, dose: 400.0 mg/kg/injection, schedule: Q01DX001 (ip), vehicle: saline with Tween-80) 94 % of control.

For the molecule `CCOP(=[Se])(OCC)[Se][Se][Se]P(=[Se])(OCC)OCC`, under “endpoint: mean survival time, dose: 100.0 mg/kg/injection, schedule: Q01DX001 (ip), vehicle: saline”, the T/C was 108 % of control.

On to `CC1(C)COC(Cc2ccccc2Br)=N1`, for which the T/C by setting is: (endpoint: mean survival time, dose: 100.0 mg/kg/injection, schedule: Q04DX003 (ip), vehicle: saline) 101 % of control; (endpoint: mean survival time, dose: 200.0 mg/kg/injection, schedule: Q04DX003 (ip), vehicle: saline) 93 % of control; (endpoint: mean survival time, dose: 400.0 mg/kg/injection, schedule: Q04DX003 (ip), vehicle: saline) 93 % of control.

In the case of `C#CCP(=O)(OCC)OCC`, the T/C is, setting by setting: (endpoint: mean survival time, dose: 100.0 mg/kg/injection, schedule: Q01DX009 (ip), vehicle: saline) 95 % of control; (endpoint: mean survival time, dose: 200.0 mg/kg/injection, schedule: Q01DX009 (ip), vehicle: saline) 95 % of control; (endpoint: mean survival time, dose: 400.0 mg/kg/injection, schedule: Q01DX009 (ip), vehicle: saline) 94 % of control.

Turning to `Nc1cccc2ccc(S(=O)(=O)O)cc12`, the T/C is, setting by setting: under setting [2], 101 % of control; under setting [4], 106 % of control.

Turning to `CCC(=O)Oc1ccc(C2N(Cc3ccc(N(C)C)cc3)CCCN2Cc2ccc(N(C)C)cc2)cc1`, the T/C runs as follows: under setting [3], 103 % of control; under setting [4], 89 % of control; under setting [5], 92 % of control.

For the molecule `COCC1OC(OC(=O)c2ccccc2)C(OC(=O)c2ccccc2)C(OC(=O)c2ccccc2)C1OC` (stereo unspecified), the T/C is 101 % of control (endpoint: mean survival time, dose: 50.0 mg/kg/injection, schedule: Q01DX009 (ip), vehicle: saline with Tween-80) and 93 % of control under setting [4].

Take `OC(CC1CCCC(CC(O)c2ccccc2)N1CCc1ccccc1)c1ccccc1` (stereo unspecified): the T/C was 97 % of control (endpoint: mean survival time, dose: 75.0 mg/kg/injection, schedule: Q01DX001 (ip), vehicle: saline) and 91 % of control (endpoint: mean survival time, dose: 150.0 mg/kg/injection, schedule: Q01DX001 (ip), vehicle: saline).

Regarding `CNc1nc(N)[nH]c(=O)c1N=O`, the T/C is, setting by setting: (endpoint: mean survival time, dose: 50.0 mg/kg/injection, schedule: Q04DX002 (ip), vehicle: saline with Tween-80) 105 % of control; (endpoint: mean survival time, dose: 100.0 mg/kg/injection, schedule: Q04DX002 (ip), vehicle: saline with Tween-80) 102 % of control; (endpoint: mean survival time, dose: 200.0 mg/kg/injection, schedule: Q04DX002 (ip), vehicle: saline with Tween-80) 105 % of control.
